From patent publication US20030235852A1, “Nucleic acid-peptide display libraries containing peptides with unnatural amino acid residues, and methods of making same using peptide modifying agents” (priority 2002, published 2003)
Read-outs that look alike come from different tables or passages of the source. Peptide text beside a SMILES is read from it. * marks the point of attachment. X1 = CC1(C)S[C@@H]2[C@H](NC(=O)C*)C(=O)N2[C@H]1C(=O)O

Tests used:
[1] = biological target: T1, PBP2a (Staphylococcus aureus, UniProt P07944); assay: biochemical; type: biochemical
T1 construct: The truncated PBP2a gene (Roychoudhury et al., J. Biol. Chem. 269:112067-12073, 1994) (cleaved yes); made in house; host or cells: E. coli BL21(DE3)

[2] = biological target: penicillin-binding protein 2a (PBP2a), truncated, recombinant from E. coli (Staphylococcus aureus (methicillin-resistant, MRSA)) (UniProt P07944); assay: relative IC50: competition with biotinylated ampicillin for PBP2a, SDS-PAGE and streptavidin-HRP blot
[3] = biological target: penicillin-binding protein 2a (PBP2a), truncated, recombinant from E. coli (Staphylococcus aureus (methicillin-resistant, MRSA)) (UniProt P07944); assay: relative IC50: competition with biotinylated ampicillin for PBP2a

Question: How did the IC50 ([1]; 2 μg pure PBP2a, conjugate 15 min at 37° C., then 20 μg biotinylated ampicillin 10 min, read-out: relative IC50) turn out when `CC[C@H](C)[C@H](NC(=O)[C@H](CSCC(=O)N[C@@H]1C(=O)N2[C@@H]1SC(C)(C)[C@@H]2C(=O)O)NC(=O)[C@H](CC(N)=O)NC(=O)[C@H](CO)NC(=O)[C@H](CC(N)=O)NC(=O)[C@H](CCCNC(=N)N)NC(=O)[C@@H](N)CC(C)C)C(=O)N[C@@H](CCCNC(=N)N)C(=O)N[C@@H](Cc1c[nH]cn1)C(=O)N[C@@H](Cc1ccccc1)C(=O)N[C@@H](Cc1ccccc1)C(=O)O` [LRNSNC(pen)IRHFF] (H-LRNSNC(X1)IRHFF-OH) was run?
Answer: The IC50 was roughly 7 mM.

Question: And the “improvement of PBP2a inhibition over the parent penam” value ([1]; as compared)?
Answer: The value was “about 100 fold”.

Question: `CO/N=C(\C(=O)N[C@@H]1C(=O)N2C(C(=O)O)=C(COC(C)=O)CS[C@H]12)c1csc(N)n1` [cefotaxime, reference compound] was tested. Which IC50 [1] did it give?
Answer: Its IC50 is 2.9 mM.

Question: How did the IC50 [2] turn out when “LRNSNC(COOH)IRHFF (residues 2-12 of SEQ ID NO: 5), peptide derivatized with bromoacetic acid” was run?
Answer: Its IC50 is greater than 35 mM.

Question: With “LRNSNC(pen)IRHFF (residues 2-12 of SEQ ID NO: 5), synthetic peptide penicillanate conjugate” as the compound, how does the fold improvement compared to 6-aminopenicillanic acid [3] read?
Answer: Its fold improvement compared to 6-aminopenicillanic acid is 100 fold.
